For assay [1], the target named is Tyrosine-protein kinase ABL2 (Homo sapiens, UniProt P42684).
The target of assay [2] is RAC-gamma serine/threonine-protein kinase (Homo sapiens, UniProt Q9Y243).
The target of the next assay is T1, Aurora kinase A (Homo sapiens, UniProt O14965).
T1 sequence (O14965 whole entry): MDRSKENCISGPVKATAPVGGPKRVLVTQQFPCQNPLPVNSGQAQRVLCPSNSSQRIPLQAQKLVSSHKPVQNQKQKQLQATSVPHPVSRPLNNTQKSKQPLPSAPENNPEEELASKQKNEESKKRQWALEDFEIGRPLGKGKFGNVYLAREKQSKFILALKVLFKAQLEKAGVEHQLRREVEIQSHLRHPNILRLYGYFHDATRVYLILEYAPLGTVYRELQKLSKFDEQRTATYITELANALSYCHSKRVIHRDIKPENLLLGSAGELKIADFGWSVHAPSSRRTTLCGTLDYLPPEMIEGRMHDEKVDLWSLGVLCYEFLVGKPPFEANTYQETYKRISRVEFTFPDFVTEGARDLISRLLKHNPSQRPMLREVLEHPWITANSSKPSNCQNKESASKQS

Assay [3] concerns the target Serine/threonine-protein kinase MRCK beta (Homo sapiens, UniProt Q9Y5S2).
Assay [4] concerns the target Cyclin-dependent kinase 5 (Homo sapiens, UniProt Q00535).
The target in assay [5] is Serine/threonine-protein kinase/endoribonuclease IRE2 (Homo sapiens, UniProt Q76MJ5).
Sequence of Serine/threonine-protein kinase/endoribonuclease IRE2 (Q76MJ5 whole entry): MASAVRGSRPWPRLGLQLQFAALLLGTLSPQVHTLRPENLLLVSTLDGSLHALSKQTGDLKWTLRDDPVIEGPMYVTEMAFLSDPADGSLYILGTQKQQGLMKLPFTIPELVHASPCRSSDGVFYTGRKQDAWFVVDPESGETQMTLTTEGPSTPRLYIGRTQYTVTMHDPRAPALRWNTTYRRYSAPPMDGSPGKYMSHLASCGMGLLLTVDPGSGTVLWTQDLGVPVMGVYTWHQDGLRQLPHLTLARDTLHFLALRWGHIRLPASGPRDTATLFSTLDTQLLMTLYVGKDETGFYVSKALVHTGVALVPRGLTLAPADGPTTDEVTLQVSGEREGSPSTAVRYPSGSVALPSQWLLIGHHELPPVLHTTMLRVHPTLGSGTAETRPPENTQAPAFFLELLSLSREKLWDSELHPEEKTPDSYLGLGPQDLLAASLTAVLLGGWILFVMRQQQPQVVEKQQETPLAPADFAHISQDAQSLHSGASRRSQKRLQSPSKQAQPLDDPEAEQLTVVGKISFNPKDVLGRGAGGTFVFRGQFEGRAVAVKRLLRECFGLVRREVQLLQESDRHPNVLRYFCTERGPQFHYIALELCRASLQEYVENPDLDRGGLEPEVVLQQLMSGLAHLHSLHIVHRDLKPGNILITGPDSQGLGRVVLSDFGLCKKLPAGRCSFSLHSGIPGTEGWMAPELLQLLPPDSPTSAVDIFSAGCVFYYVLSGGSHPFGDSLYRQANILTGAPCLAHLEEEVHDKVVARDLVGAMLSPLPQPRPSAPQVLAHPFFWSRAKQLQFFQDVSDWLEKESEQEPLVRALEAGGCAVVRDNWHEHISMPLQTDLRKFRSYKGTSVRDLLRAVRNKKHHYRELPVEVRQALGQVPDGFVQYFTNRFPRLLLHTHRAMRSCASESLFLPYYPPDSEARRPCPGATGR
In assay [6] the target is T2, Receptor-type tyrosine-protein kinase FLT3 (Homo sapiens, UniProt P36888).
T2 sequence (P36888 whole entry): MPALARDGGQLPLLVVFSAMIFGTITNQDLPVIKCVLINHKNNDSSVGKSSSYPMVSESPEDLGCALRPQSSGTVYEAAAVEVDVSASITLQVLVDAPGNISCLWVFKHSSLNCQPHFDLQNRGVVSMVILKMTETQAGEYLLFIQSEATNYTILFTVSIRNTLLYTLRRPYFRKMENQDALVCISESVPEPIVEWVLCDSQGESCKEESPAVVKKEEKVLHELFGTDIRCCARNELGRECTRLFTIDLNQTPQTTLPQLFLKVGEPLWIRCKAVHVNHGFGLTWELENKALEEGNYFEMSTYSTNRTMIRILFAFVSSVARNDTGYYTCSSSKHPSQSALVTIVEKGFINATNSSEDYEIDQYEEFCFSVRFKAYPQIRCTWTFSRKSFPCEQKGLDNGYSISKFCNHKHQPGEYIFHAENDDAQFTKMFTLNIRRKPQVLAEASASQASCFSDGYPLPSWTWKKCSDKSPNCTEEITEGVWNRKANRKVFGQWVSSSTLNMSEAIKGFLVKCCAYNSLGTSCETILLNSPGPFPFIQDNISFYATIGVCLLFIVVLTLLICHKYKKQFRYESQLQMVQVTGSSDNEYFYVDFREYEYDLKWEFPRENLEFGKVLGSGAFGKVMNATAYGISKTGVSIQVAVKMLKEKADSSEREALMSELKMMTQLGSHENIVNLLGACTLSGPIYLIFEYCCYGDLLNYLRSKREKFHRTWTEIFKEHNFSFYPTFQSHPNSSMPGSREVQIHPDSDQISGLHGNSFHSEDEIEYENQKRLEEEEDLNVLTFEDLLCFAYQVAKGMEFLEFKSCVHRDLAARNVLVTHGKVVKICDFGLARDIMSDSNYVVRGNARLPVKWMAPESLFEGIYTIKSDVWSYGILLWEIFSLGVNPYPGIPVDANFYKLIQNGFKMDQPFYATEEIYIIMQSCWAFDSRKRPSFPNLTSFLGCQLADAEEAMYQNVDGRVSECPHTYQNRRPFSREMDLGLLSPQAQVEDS

In assay [7] the target is NADH dehydrogenase [ubiquinone] 1 alpha subcomplex subunit 13 (Homo sapiens, UniProt Q9P0J0).
Sequence of NADH dehydrogenase [ubiquinone] 1 alpha subcomplex subunit 13 (Q9P0J0 whole entry, one chain of several): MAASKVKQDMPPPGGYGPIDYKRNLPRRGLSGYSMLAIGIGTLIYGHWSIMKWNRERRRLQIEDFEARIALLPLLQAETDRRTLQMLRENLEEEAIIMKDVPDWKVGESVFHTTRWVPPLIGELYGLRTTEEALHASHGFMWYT
Assay [8] addresses T3, Serine/threonine-protein kinase TAO3 (Homo sapiens, UniProt Q9H2K8).
T3 sequence (Q9H2K8 whole entry): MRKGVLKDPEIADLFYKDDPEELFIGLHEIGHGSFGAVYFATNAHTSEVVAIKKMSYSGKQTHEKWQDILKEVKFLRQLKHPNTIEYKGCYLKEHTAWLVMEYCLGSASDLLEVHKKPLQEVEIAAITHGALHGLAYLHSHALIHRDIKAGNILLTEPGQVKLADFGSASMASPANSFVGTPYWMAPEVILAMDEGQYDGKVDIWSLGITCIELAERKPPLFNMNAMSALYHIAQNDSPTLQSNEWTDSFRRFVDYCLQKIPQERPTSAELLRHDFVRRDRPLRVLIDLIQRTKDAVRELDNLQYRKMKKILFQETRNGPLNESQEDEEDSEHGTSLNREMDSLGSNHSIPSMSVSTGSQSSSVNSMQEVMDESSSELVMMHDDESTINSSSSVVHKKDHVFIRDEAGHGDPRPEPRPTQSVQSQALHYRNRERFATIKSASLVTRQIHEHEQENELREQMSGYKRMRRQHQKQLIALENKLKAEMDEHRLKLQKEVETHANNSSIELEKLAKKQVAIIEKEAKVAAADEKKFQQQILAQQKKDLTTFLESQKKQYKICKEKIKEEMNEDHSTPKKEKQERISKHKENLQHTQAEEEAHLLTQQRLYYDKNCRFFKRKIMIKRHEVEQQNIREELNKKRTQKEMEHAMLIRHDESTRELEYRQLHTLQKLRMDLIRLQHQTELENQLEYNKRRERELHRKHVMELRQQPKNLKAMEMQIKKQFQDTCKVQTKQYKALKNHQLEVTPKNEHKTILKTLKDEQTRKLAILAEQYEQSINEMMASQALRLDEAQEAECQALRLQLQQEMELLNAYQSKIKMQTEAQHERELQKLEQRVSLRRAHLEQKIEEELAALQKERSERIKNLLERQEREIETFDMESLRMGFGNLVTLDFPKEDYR

Structures are written as SMILES. Activity calls are given as the source filed them. Rule as the data show it, for most assays here: actives have a measured Kd and inactives only a lower limit. Some results are limits rather than exact numbers.

The term Kd denotes the constant that tells how readily two partners part at equilibrium.
Also: in the data inactive means no Kd found up to 30 µM.

Sequence of Cyclin-dependent kinase 5 (Q00535 whole entry): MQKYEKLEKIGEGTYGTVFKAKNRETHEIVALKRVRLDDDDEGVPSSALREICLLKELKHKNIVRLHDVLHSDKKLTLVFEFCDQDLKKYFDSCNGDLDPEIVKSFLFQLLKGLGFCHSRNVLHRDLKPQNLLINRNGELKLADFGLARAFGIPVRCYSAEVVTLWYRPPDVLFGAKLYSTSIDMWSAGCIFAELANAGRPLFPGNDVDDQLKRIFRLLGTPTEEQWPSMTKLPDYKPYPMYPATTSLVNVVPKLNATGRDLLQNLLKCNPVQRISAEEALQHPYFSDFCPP
Sequence of Tyrosine-protein kinase ABL2 (P42684 whole entry): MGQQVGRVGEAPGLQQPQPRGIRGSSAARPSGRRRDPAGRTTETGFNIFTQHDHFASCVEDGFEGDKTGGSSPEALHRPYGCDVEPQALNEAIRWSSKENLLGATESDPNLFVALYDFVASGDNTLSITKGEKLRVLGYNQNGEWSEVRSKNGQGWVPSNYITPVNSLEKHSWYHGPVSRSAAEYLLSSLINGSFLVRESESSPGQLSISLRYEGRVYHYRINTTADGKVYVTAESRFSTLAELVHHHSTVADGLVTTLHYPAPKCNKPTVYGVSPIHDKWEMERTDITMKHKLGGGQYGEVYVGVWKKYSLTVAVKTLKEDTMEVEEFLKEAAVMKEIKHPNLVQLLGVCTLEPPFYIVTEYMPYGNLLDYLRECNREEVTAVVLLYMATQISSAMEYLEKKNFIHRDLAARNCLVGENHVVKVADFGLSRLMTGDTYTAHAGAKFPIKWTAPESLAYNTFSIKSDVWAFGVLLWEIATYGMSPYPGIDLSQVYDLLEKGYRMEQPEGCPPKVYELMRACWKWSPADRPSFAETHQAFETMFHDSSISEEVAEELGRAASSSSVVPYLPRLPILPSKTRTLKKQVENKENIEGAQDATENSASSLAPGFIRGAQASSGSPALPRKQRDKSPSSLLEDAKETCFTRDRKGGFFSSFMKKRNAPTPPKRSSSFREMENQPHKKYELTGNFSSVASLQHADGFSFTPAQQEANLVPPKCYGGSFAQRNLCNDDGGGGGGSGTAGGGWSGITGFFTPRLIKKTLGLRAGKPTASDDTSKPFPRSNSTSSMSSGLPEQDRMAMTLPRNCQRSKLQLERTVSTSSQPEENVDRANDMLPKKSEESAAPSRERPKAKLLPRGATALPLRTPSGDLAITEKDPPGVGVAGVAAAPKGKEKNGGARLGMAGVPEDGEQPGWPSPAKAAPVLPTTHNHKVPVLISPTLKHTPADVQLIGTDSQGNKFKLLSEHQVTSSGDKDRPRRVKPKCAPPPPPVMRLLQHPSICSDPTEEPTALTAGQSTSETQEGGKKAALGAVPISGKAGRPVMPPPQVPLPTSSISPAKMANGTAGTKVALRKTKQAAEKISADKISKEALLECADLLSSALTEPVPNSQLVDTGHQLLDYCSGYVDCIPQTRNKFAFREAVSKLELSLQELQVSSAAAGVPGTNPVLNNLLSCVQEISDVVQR
Sequence of Serine/threonine-protein kinase MRCK beta (Q9Y5S2 whole entry): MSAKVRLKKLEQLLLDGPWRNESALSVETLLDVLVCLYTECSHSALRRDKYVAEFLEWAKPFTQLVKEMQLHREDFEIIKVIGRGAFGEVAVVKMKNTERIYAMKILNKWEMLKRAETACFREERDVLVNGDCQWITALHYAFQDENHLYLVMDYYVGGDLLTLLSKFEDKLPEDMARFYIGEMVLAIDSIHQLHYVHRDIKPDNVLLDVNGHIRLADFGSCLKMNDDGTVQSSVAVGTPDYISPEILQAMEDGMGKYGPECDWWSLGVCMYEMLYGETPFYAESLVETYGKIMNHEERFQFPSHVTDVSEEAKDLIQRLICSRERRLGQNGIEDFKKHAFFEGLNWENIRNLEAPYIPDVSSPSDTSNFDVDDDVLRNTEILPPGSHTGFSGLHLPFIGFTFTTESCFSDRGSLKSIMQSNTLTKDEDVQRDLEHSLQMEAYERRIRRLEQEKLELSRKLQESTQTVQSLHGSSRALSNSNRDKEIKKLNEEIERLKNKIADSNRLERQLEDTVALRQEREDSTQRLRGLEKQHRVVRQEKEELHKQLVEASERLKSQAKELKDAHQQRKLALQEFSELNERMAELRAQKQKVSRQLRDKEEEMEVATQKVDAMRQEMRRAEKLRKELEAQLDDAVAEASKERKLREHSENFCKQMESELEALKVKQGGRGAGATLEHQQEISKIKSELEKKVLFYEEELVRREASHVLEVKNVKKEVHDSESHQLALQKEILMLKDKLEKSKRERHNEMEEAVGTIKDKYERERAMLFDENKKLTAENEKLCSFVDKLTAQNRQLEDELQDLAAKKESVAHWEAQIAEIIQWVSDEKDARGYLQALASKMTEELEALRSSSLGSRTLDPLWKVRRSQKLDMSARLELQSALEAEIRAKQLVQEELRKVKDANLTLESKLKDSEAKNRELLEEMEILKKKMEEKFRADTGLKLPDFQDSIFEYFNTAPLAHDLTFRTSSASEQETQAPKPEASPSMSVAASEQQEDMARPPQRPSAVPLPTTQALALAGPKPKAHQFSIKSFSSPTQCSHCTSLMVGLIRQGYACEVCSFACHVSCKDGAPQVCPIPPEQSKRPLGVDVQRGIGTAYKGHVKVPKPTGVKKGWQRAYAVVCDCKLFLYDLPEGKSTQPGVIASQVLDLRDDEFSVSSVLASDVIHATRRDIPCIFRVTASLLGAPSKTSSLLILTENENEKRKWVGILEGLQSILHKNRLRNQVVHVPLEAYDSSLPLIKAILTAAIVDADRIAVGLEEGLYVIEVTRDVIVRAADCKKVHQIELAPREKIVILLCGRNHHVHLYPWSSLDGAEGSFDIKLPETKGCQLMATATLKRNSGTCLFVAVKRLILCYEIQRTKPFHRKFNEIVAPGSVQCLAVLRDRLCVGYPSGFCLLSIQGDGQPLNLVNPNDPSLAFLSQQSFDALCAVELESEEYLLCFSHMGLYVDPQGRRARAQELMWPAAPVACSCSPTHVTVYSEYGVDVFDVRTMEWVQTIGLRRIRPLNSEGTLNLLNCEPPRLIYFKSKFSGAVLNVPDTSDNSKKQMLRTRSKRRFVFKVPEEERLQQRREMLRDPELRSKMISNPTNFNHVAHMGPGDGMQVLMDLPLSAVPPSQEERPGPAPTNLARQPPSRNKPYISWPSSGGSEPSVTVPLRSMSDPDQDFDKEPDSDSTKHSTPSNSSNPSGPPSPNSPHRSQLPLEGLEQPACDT
Sequence of RAC-gamma serine/threonine-protein kinase (Q9Y243 whole entry): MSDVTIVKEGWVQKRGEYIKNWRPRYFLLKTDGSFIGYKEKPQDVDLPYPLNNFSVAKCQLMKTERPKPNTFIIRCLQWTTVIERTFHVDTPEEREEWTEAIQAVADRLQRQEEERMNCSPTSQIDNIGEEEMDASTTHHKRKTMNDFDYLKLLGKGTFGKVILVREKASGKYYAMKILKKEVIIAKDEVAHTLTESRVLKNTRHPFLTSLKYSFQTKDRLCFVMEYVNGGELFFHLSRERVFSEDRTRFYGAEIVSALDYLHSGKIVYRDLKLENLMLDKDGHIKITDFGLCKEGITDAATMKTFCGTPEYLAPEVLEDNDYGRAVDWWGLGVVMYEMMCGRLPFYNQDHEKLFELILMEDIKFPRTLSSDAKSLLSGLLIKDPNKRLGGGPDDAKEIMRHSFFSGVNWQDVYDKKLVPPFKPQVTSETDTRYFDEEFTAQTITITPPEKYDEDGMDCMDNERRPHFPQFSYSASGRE

On to `CN1CC[C@@H](c2c(O)cc(O)c3c(=O)cc(-c4ccccc4Cl)oc23)[C@@H]1CO`, for which the Kd is > 30 µM (inactive) in [1]; 5.92 µM in assay [2]; > 30 µM (inactive) on Aurora kinase A; > 30 µM (inactive) in [3]; > 30 µM (inactive) in assay [4]; > 30 µM (inactive) in assay [5]. The Kd in assay [6], in [7] and in assay [8] was > 30 µM (inactive) throughout.

Regarding `Cn1cc(-c2ccc3nnc(C(F)(F)c4ccc5ncccc5c4)n3n2)cn1` [JNJ-38877605], the Kd (in [1]; in assay [2]; at Aurora kinase A; in assay [3]; in assay [4]; in assay [5]) was > 30 µM (inactive) each time. For the same compound, the Kd in assay [6], in [7] and in assay [8] was > 30 µM (inactive) each time.

For `Cc1ccc(-n2nc(C(C)(C)C)cc2NC(=O)NCc2cc(F)ccc2Oc2ccc3c(cnn3CCO)c2)cc1` [PEXMETINIB], the Kd in assay [1] was 0.351 µM (active); in assay [2], > 30 µM (inactive); on Aurora kinase A, > 30 µM (inactive); in assay [3], > 30 µM (inactive); in assay [4], 4.16 µM (active); in assay [5] it was > 30 µM (inactive). Besides, the Kd in [6], in [7] and in assay [8] was > 30 µM (inactive) throughout.

With `Cc1c(F)cc(C(=O)NC2CC2)cc1-c1ccc(C(=O)NCC(C)(C)C)cn1` [LOSMAPIMOD], the Kd (in assay [1]; in assay [2]; at Aurora kinase A; in [3]; in assay [4]; in assay [5]) was > 30 µM (inactive) throughout. Further, the Kd in assay [6], in assay [7] and in assay [8] was > 30 µM (inactive) in each case.

As for `COc1cc(N2CCC(N3CCN(C)CC3)CC2)ccc1Nc1ncnc(Nc2ccccc2S(=O)(=O)C(C)C)n1` [ASP-3026], the Kd (in [1]; in assay [2]; at Aurora kinase A; in assay [3]; in assay [4]; in [5]) was > 30 µM (inactive) each time. For the same compound, the Kd in assay [6] is 0.627 µM (active); in assay [7], > 30 µM (inactive); in [8], > 30 µM (inactive).

On to `CNC(=O)c1ccc(C)c(-n2c(C)cc(OCc3ccc(F)cc3F)c(Br)c2=O)c1` [PH-797804], for which the Kd (in assay [1]; in [2]; at Aurora kinase A; in assay [3]; in assay [4]; in [5]) was > 30 µM (inactive) each time. Further, the Kd in [6], in [7] and in assay [8] was > 30 µM (inactive) each time.

Take `CN1CCC(COc2cnc(-c3cccc(Cn4nc(-c5cccc(C#N)c5)ccc4=O)c3)nc2)CC1` [TEPOTINIB]: the Kd (in [1]; in assay [2]; at Aurora kinase A; in [3]; in assay [4]; in assay [5]) was > 30 µM (inactive) each time. Moreover, the Kd in [6], in assay [7] and in assay [8] was > 30 µM (inactive) throughout.

Consider `CCCS(=O)(=O)Nc1ccc(F)c(C(=O)c2c[nH]c3ncc(-c4ccc(Cl)cc4)cc23)c1F` [VEMURAFENIB], for which the Kd (in assay [1]; in assay [2]; at Aurora kinase A; in [3]; in [4]; in [5]) was > 30 µM (inactive) throughout. In addition, the Kd in assay [6], in assay [7] and in assay [8] was > 30 µM (inactive) in each case.

Consider `N[C@@H]1CCCN(c2c(/C=C3\SC(=O)NC3=O)cccc2-c2ccccc2)C1`, for which the Kd (in [1]; in [2]; on Aurora kinase A; in assay [3]; in [4]; in assay [5]) was > 30 µM (inactive) throughout. Also, the Kd in assay [6], in assay [7] and in assay [8] was > 30 µM (inactive) throughout.

As to `COc1cc(OC)c(/C=C/S(=O)(=O)Cc2ccc(OC)c(NCC(=O)O)c2)c(OC)c1` [RIGOSERTIB], the Kd (in assay [1]; in [2]; on Aurora kinase A; in [3]; in assay [4]; in assay [5]) was > 30 µM (inactive) each time. The Kd in assay [6], in assay [7] and in [8] was > 30 µM (inactive) throughout.

For the compound `CC[C@@H]1C(=O)N(C)c2cnc(Nc3ccc(C(=O)N[C@H]4CC[C@H](N5CCN(CC6CC6)CC5)CC4)cc3OC)nc2N1C(C)C` [VOLASERTIB], the Kd (in [1]; in [2]; at Aurora kinase A; in assay [3]; in [4]; in assay [5]) was > 30 µM (inactive) throughout. For the same compound, the Kd in [6], in [7] and in assay [8] was > 30 µM (inactive) each time.

In the case of `Cc1cc(-c2cc(O)ccc2Cl)cc2nnc(Nc3ccc(OCCN4CCCC4)cc3)nc12`, the Kd in assay [1] was 0.001 µM (active); in assay [2], > 30 µM (inactive); at Aurora kinase A, > 30 µM (inactive); in [3], > 30 µM (inactive); in assay [4] it was > 30 µM (inactive); in assay [5] it was > 30 µM (inactive). The Kd in [6], in assay [7] and in assay [8] was > 30 µM (inactive) in each case.

(Values after ChEMBL document CHEMBL3991601, “The target landscape of clinical kinase drugs” (Science, 2017).)
